Tests used:
OVCAR-8 and ID8 cells = assay: Clonogenic assay; assay type: cell-based
Protocol: (§1) We tested the relationship between AzPs dose and the viability of human ovarian cancer cell lines and the ID8 murine ovarian cancer cell line.
(§2) Clonogenic assay: 300 suspended OC cells were plated in each well of 12 well plates (Corning-Costar, #3598) and incubated for 24 h for attachment. The media was replaced after 24 h with media containing a respective concentration of the test compound and incubated for 5-8 days until visible colonies appeared in vehicle-treated wells. Cells were then washed and fixed with 2% paraformaldehyde, followed by washing and staining with 0.5% Crystal violet for 1 h. Cells were de-stained using DI water and allowed to dry. Colonies were counted under the microscope at 100× magnification.
(§3) FIG. 1A) Lead optimization of SU093 to obtain SU056. FIG. 1B) IC50 values of SU093 and SU056 on various ovarian cancer cells. Clonogenic survival of OC cells treated with SU093 or SU056. […] FIG. 1C) Representative colony formation from respective wells. FIG. 1D) Number of colonies formed after SU093 and SU056 treatment. […] FIG. 1F) Cell cycle distribution of propidium iodide (PI)-stained OVCAR8, SKOV3, and ID8 cells. […] FIG. 1G) Effects of SU093 and SU056 on apoptotic cell death analyzed by Annexin-FITC staining. […] FIG. 1H) Cell migration assay.

[1] = Liver toxicity parameters (ALT, AST, ALKP) in ID8 study; assay type: in vivo, C57BL/6 mice; conditions: 20 mg/kg daily IP, 42 days
Protocol: (§4) These promising results led us to test SU093 and SU056 in vivo. C57BL/6 mice were implanted with 2×10^6 firefly luciferase (luc+)-expressing ID-8 syngeneic ovarian cancer cells subcutaneously. Once the tumors reached 100 mm^3 in size, we began daily intraperitoneal treatment with SU093 and SU056 at 20 mg/kg (vehicle control 30% PEG-300 in saline). Tumor growth was monitored via bioluminescence imaging (IVIS).
(§5) In vivo xenograft model and drug efficacy study: All animal experiments were reviewed and approved by the Animal Care and Use Committee of Stanford University, CA, USA. Luciferase tagged ID8 (2×10^6) or OVCAR8 (5×10^6) cells were implanted into the right flank of 6-7-week-old female C57BL/6 mice and NOD/SCID mice, respectively. Respective treatment began after tumors grew to 100-200 mm^3 diameters. The ID8 syngeneic mice model was treated with a vehicle (30% PEG-300 in saline), 20 mg/kg SU093, and 20 mg/kg SU056 intraperitoneally (IP) daily for 42 days. At the end of treatment, blood was collected from each mouse and analyzed for liver toxicity parameters, including Alanine Aminotransferase (ALT), Aspartate Aminotransferase (AST), and Alkaline Phosphatase (ALKP). […]

[2] = tested on: OVCAR8, SKOV3, and ID8 cells; assay: Cell cycle analysis (propidium iodide, flow cytometry); assay type: cell-based; conditions: 12 h treatment; PI-stained OVCAR8, SKOV3, ID8
Protocol: (§6) To determine whether proliferation inhibition was the dominant factor driving the reduction in OC viability seen with AzP treatment, we used propidium iodide and annexin-FITC stains with flow cytometry to measure the distribution of cell cycle phases after treatment. […] Furthermore, in the Boyden chamber assay for cell migration, SU093 inhibited cell migration by 40-46% (1 μM, P<0.05) in different OC cell lines.
Cell cycle analysis: 30,000 OC cells were plated in each well of 12 well plates and incubated for 24 h. […] Both live and dead cells were collected via trypsinization and cell pellets were fixed with 70% ethanol. Fixed cells were stained using propidium iodide (PI) cocktail (80 μg/mL RNase A and 50 μg/mL PI in saponin-EDTA solution) and incubated at 4° C. overnight. Each sample was analyzed using a Guava® easyCyte™ Flow Cytometer (Millipore, Burlington, MA). FlowJo software calculated the % cells in each cell cycle phase.
as §3

OC cell lines = assay: Cell migration assay (Boyden chamber); assay type: cell-based; conditions: different OC cell lines, P<0.05
Protocol: as §6
Cell migration assay: 1×10^5 cells were plated in 60 mm cell culture dishes (Corning-Falcon, #353002) and incubated for 24 h. […] Cells were trypsinized and collected in a conical tube for each plate. Pellets of cells were resuspended, and live cells were counted using a hemocytometer and trypan blue staining. 40,000 live cells were then plated in the upper chamber of 8-micron transwell (Corning-Falcon, #353097) with 0.2% FBS media. The lower chamber contained 10% FBS complete media. […] Each transwell was washed, swiped for non-migrated cells and fixed using 75% ethanol. Fixed transwells were stained with 0.5% crystal violet for 1 h. De-stained transwell membranes were cut and mounted on a slide using DPX mounting media. Migrated cells were counted under the microscope at 100× magnification.
FIG. 1A) Lead optimization of SU093 to obtain SU056. […] FIG. 1G) Effects of SU093 and SU056 on apoptotic cell death analyzed by Annexin-FITC staining. […]

ovarian cancer cells = assay: Apoptotic cell death assay (Annexin-FITC); assay type: cell-based; conditions: 24 h treatment; Annexin-FITC staining
Protocol: as §6
Apoptotic cell death assay: Cells were plated and treated as described in cell cycle analysis assay above. Treated cells were incubated for 24 h and both live and dead cells were collected. Cells were stained with Annexin V and PI using FITC Annexin V apoptosis detection kit (BD Pharmingen, San Jose, CA) by following the manufacturer's protocol. Guava® easyCyte™ Flow Cytometer was used to analyze the stained cells.
as §3

ID-8 tumor xenograft = assay: ID8 syngeneic ovarian tumor model, tumor growth and lung metastasis; assay type: in vivo, C57BL/6 mice
Protocol: as §4
Due to prior observation of a significant reduction in the migratory ability of OC cells treated with the two drugs (FIG. 1H), we also measured the effect of drug treatment on ovarian cancer metastases. At the end of above experiment, lungs were fixed and metastatic foci were counted under the dissecting microscope followed by H&E staining.
In vivo xenograft model and drug efficacy study: All animal experiments were reviewed and approved by the Animal Care and Use Committee of Stanford University, CA, USA. Luciferase tagged ID8 (2×10^6) or OVCAR8 (5×10^6) cells were implanted into the right flank of 6-7-week-old female C57BL/6 mice and NOD/SCID mice, respectively. Respective treatment began after tumors grew to 100-200 mm^3 diameters. The ID8 syngeneic mice model was treated with a vehicle (30% PEG-300 in saline), 20 mg/kg SU093, and 20 mg/kg SU056 intraperitoneally (IP) daily for 42 days. At the end of treatment, blood was collected from each mouse and analyzed for liver toxicity parameters, including Alanine Aminotransferase (ALT), Aspartate Aminotransferase (AST), and Alkaline Phosphatase (ALKP). OVCAR8 xenograft mice model was treated with vehicle (30% PEG-300 in saline), 5 mg/kg paclitaxel (once a week), 10 mg/kg SU056 (daily), a combination of paclitaxel (5 mg/kg, once a week) and SU056 (10 mg/kg, daily) for 4 weeks. Mice from both studies were euthanized, the tumor and different organs were collected and fixed in neutral buffered formalin and further processed for immunohistochemical analysis.
FIGS. 2A-2F. SU093 and SU056 inhibit mice ovarian ID-8 tumor xenograft growth in C57BL/6 mice. Mice were subcutaneously injected with ID-8 cells mixed with Matrigel in 1:1 ratio and the drug treatment started when tumors reached 100 mm^3. […] FIG. 2B) Tumor volume/mouse as a function of time. […] FIG. 2C) Tumor weight/mouse at the end of the study. […] FIG. 2D) Liver toxicity parameters at the end of 42 days showing no significant difference between control, SU093, and SU056. FIGS. 2E-2F) Lung metastasis assay. FIG. 2E) H&E staining of the lung (red arrow indicates the metastasis from ID8 xenograft). Scale bar, 250 μm. FIG. 2F) No. of lung metastatic nodules.

SKOV-3 = assay: Clonogenic assay; assay type: cell-based, human; conditions: 0.5 & 1 μM
Protocol: as §1, §2, §3

OVCAR8 OC tumors = assay: OVCAR8 xenograft combination study; assay type: in vivo, NOD-SCID mice; conditions: SU056 10 mg/kg daily, paclitaxel 5 mg/kg weekly, intraperitoneal, 28 days
Protocol: In a pharmacokinetics study in vivo, injection of 20 mg/kg SU056 led to a maximum serum concentration of 28.19 μg/mL with a T1/2 of ˜45 min. We then tested the synergism of paclitaxel and SU056 co-treatment in vivo in NOD-SCID mice implanted with OVCAR8 OC tumors as described above. Mice were given daily treatment of SU056 (10 mg/kg) and weekly treatment of paclitaxel (5 mg/kg) were administered intraperitoneally. […] This likely resulted from decreased paclitaxel efflux from OVCAR8 cells in the presence of SU056.
as §5

YB-1 and MDR1 = assay: Immunoblotting of YB-1 and MDR1 in OVCAR8 cells; assay type: cell-based, human; conditions: paclitaxel 0.5 nM, SU056 0.5 μM, 12 h
Protocol: Immunoblotting: Once 70% confluency of OC cells plated in 100 mm cell culture was obtained, dishes were treated with a respective concentration of SU056 for a respective time. At the end of treatment, cells were collected and lysed using M-PER™ lysis solution (Thermo Scientific, #78503), supplemented with Halt protease and phosphatase inhibitor cocktail (Thermo Scientific, #78440). An equal amount (40-60 μg) of proteins was resolved using 8%/10%/12% SDS-PAGE gel electrophoresis. Proteins were then transferred onto a PVDF membrane (Bio-Rad, #162-01277). Blocked membranes were incubated with respective primary antibody solution prepared in 5% nonfat milk TPBS at 4° C. overnight with gentle rocking. Primary antibody-probed membranes were washed and probed with respective HRP-conjugated secondary antibody. Proteins were detected using Immobilon® Crescendo Western HRP Substrate (Millipore, Germany) and visualized on an IVIS Lumina Imaging System (Perkin Elmer, Waltham, MA). […]

Compound | OC colony formation (OVCAR-8 and ID8 cells) | impact on blood chemistry indicators (AST, ALT, alkaline phosphatase) [1] | cell cycle distribution [2] | inhibition at 1 µM (OC cell lines) | apoptotic cell death (ovarian cancer cells) | reduction in tumor weight (ID-8 tumor xenograft; 20 mg/kg daily IP, at 42 days) | tumor progression vs vehicle control (ID-8 tumor xenograft; 20 mg/kg daily intraperitoneal, bioluminescence imaging) | colony formation, effect on SKOV-3 (SKOV-3) | OC tumor growth (OVCAR8 OC tumors) | expression of YB-1 and MDR1 (Western blot) (YB-1 and MDR1)
COc1ccc2c(c1)N(CCO)C1=C(C(=O)OC1)C2c1cccc(F)c1 (stereo not shown) [SU093, 9-(3-fluorophenyl)-4-(2-hydroxyethyl)-6-methoxy-4,9-dihydrofuro[3,4-b]quinolin-1(3H)-one, reference compound] | decreased OC colony formation in a dose-dependent and significant manner | no significant impact | G1 phase arrest | 40 to 46% | induce apoptotic cell death | 1.5 fold | significantly delay the tumor progression | moderately affect |  | 
CC(=O)O[C@H]1C(=O)[C@@]2(C)[C@H]([C@H](OC(=O)c3ccccc3)[C@]3(O)C[C@H](OC(=O)[C@H](O)[C@@H](NC(=O)c4ccccc4)c4ccccc4)C(C)=C1C3(C)C)[C@]1(OC(C)=O)CO[C@@H]1C[C@@H]2O [paclitaxel, reference compound] |  |  |  |  |  |  |  |  | significant reduction in OC tumor growth | upregulate the expression of YB-1 and MDR1
